Source: ChEMBL document CHEMBL1201862, “PubChem BioAssay data set” (2004)
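Interpolation was linear, between the two tested concentrations surrounding the appropriate level; five concentrations were tested over 48 hours in 96-well plates. At the GI50, growth is halved.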 Activity calls are given as the source filed them. Cut-off read from the data, not from the text of the source: active = GI50 up to about 1.1 µM and inactive = higher.

Assays:
Assay in all cases: NCI tumour cell line growth inhibition, 48 h
NCI-H460 = tested on: NCI-H460
SNB-75 = tested on: SNB-75
HCT-116 = tested on: HCT-116
SF-268 = tested on: SF-268
SR = tested on: SR
HCC 2998 = tested on: HCC 2998
OVCAR-3 = tested on: OVCAR-3
SK-MEL-5 = tested on: SK-MEL-5
OVCAR-4 = tested on: OVCAR-4
DMS-273 = tested on: DMS-273
A498 = tested on: A498
SNB-19 = tested on: SNB-19
UACC-62 = tested on: UACC-62
KM-20L2 = tested on: KM-20L2
CCRF-CEM = tested on: CCRF-CEM
K562 = tested on: K562
UO-31 = tested on: UO-31
LXFL 529 = tested on: LXFL 529
SW-620 = tested on: SW-620
ACHN = tested on: ACHN
TK-10 = tested on: TK-10
COLO 205 = tested on: COLO 205
A549 = tested on: A549
EKVX = tested on: EKVX
UACC-257 = tested on: UACC-257
SK-MEL-28 = tested on: SK-MEL-28
U-251 = tested on: U-251
Malme-3M = tested on: Malme-3M
HOP-92 = tested on: HOP-92
HL-60 = tested on: HL-60
DMS-114 = tested on: DMS-114
OVCAR-8 = tested on: OVCAR-8
SN12C = tested on: SN12C
HT-29 = tested on: HT-29
HOP-62 = tested on: HOP-62
OVCAR-5 = tested on: OVCAR-5
M14 = tested on: M14
SF-295 = tested on: SF-295
IGROV-1 = tested on: IGROV-1
KM12 = tested on: KM12
HCT-15 = tested on: HCT-15
MOLT-4 = tested on: MOLT-4
SNB-78 = tested on: SNB-78
M19-MEL = tested on: M19-MEL
SF-539 = tested on: SF-539
DLD-1 = tested on: DLD-1
SK-OV-3 = tested on: SK-OV-3
RPMI-8226 = tested on: RPMI-8226
NCI-H23 = tested on: NCI-H23
HOP-18 = tested on: HOP-18
786-0 = tested on: 786-0
RXF 393 = tested on: RXF 393
LOX IMVI = tested on: LOX IMVI
T47D = tested on: T47D
MDA-N = tested on: MDA-N
NCI-H226 = tested on: NCI-H226
NCI-H522 = tested on: NCI-H522
SK-MEL-2 = tested on: SK-MEL-2
DU-145 = tested on: DU-145
MDA-MB-231 = tested on: MDA-MB-231
MCF7 = tested on: MCF7
PC-3 = tested on: PC-3
BT-549 = tested on: BT-549
CAKI-1 = tested on: CAKI-1
NCI/ADR-RES = tested on: NCI/ADR-RES
MDA-MB-435 = tested on: MDA-MB-435
Hs-578T = tested on: Hs-578T

Cc1c(C(=O)NCCO)[n+]([O-])c2cc(Cl)ccc2[n+]1[O-]
GI50 (NCI-H460): > 100 µM (inactive)
GI50 (SNB-75): 48.5 µM (inactive)
GI50 (HCT-116): > 100 µM (inactive)
GI50 (SF-268): > 100 µM (inactive)
GI50 (SR): > 100 µM (inactive)
GI50 (HCC 2998): > 100 µM (inactive)
GI50 (OVCAR-3): > 100 µM (inactive)
GI50 (SK-MEL-5): > 100 µM (inactive)
GI50 (OVCAR-4): > 100 µM (inactive)
GI50 (DMS-273): > 100 µM (inactive)
GI50 (A498): > 100 µM (inactive)
GI50 (SNB-19): > 100 µM (inactive)
GI50 (UACC-62): > 100 µM (inactive)
GI50 (KM-20L2): > 100 µM (inactive)
GI50 (CCRF-CEM): > 100 µM (inactive)
GI50 (K562): > 100 µM (inactive)
GI50 (UO-31): > 100 µM (inactive)
GI50 (LXFL 529): > 100 µM (inactive)
GI50 (SW-620): > 100 µM (inactive)
GI50 (ACHN): > 100 µM (inactive)
GI50 (TK-10): > 100 µM (inactive)
GI50 (COLO 205): > 100 µM (inactive)
GI50 (A549): > 100 µM (inactive)
GI50 (EKVX): > 100 µM (inactive)
GI50 (UACC-257): > 100 µM (inactive)
GI50 (SK-MEL-28): > 100 µM (inactive)
GI50 (U-251): > 100 µM (inactive)
GI50 (Malme-3M): > 100 µM (inactive)
GI50 (HOP-92): > 100 µM (inactive)
GI50 (HL-60): > 100 µM (inactive)
GI50 (DMS-114): > 100 µM (inactive)
GI50 (OVCAR-8): > 100 µM (inactive)
GI50 (SN12C): > 100 µM (inactive)
GI50 (HT-29): > 100 µM (inactive)
GI50 (HOP-62): > 100 µM (inactive)
GI50 (OVCAR-5): > 100 µM (inactive)
GI50 (M14): > 100 µM (inactive)
GI50 (SF-295): > 100 µM (inactive)
GI50 (IGROV-1): > 100 µM (inactive)
GI50 (KM12): > 100 µM (inactive)
GI50 (HCT-15): > 100 µM
GI50 (MOLT-4): > 100 µM (inactive)
GI50 (SNB-78): > 100 µM (inactive)
GI50 (M19-MEL): > 100 µM (inactive)
GI50 (SF-539): > 100 µM (inactive)
GI50 (DLD-1): > 100 µM (inactive)
GI50 (SK-OV-3): 86.9 µM (inactive)
GI50 (RPMI-8226): > 100 µM (inactive)
GI50 (NCI-H23): > 100 µM (inactive)
GI50 (HOP-18): > 100 µM (inactive)
GI50 (786-0): > 100 µM (inactive)
GI50 (RXF 393): > 100 µM (inactive)
GI50 (LOX IMVI): > 100 µM (inactive)

O=C(O)CCC(O)=C1S(=O)(=O)OCCOS1(=O)=O
GI50 (NCI-H460): > 100 µM (inactive)
GI50 (SNB-75): > 100 µM (inactive)
GI50 (HCT-116): > 100 µM (inactive)
GI50 (T47D): > 100 µM (inactive)
GI50 (SF-268): > 100 µM (inactive)
GI50 (SR): 43.7 µM (inactive)
GI50 (HCC 2998): > 100 µM (inactive)
GI50 (OVCAR-3): > 100 µM (inactive)
GI50 (SK-MEL-5): > 100 µM (inactive)
GI50 (OVCAR-4): > 100 µM (inactive)
GI50 (DMS-273): > 100 µM (inactive)
GI50 (A498): > 100 µM (inactive)
GI50 (SNB-19): > 100 µM (inactive)
GI50 (UACC-62): > 100 µM (inactive)
GI50 (KM-20L2): > 100 µM (inactive)
GI50 (MDA-N): > 100 µM (inactive)
GI50 (K562): > 100 µM (inactive)
GI50 (UO-31): > 100 µM (inactive)
GI50 (NCI-H226): > 100 µM (inactive)
GI50 (LXFL 529): > 100 µM (inactive)
GI50 (NCI-H522): > 100 µM (inactive)
GI50 (SW-620): > 100 µM (inactive)
GI50 (ACHN): > 100 µM (inactive)
GI50 (TK-10): > 100 µM (inactive)
GI50 (SK-MEL-2): > 100 µM (inactive)
GI50 (COLO 205): > 100 µM (inactive)
GI50 (A549): > 100 µM (inactive)
GI50 (EKVX): > 100 µM (inactive)
GI50 (UACC-257): > 100 µM (inactive)
GI50 (DU-145): > 100 µM (inactive)
GI50 (MDA-MB-231): > 100 µM (inactive)
GI50 (MCF7): > 100 µM (inactive)
GI50 (PC-3): > 100 µM (inactive)
GI50 (BT-549): > 100 µM (inactive)
GI50 (SK-MEL-28): > 100 µM (inactive)
GI50 (U-251): > 100 µM (inactive)
GI50 (Malme-3M): > 100 µM (inactive)
GI50 (HOP-92): > 100 µM (inactive)
GI50 (CAKI-1): > 100 µM (inactive)
GI50 (DMS-114): > 100 µM (inactive)
GI50 (OVCAR-8): > 100 µM (inactive)
GI50 (SN12C): > 100 µM (inactive)
GI50 (HT-29): > 100 µM (inactive)
GI50 (HOP-62): > 100 µM (inactive)
GI50 (OVCAR-5): > 100 µM (inactive)
GI50 (M14): > 100 µM (inactive)
GI50 (NCI/ADR-RES): > 100 µM (inactive)
GI50 (SF-295): > 100 µM (inactive)
GI50 (IGROV-1): > 100 µM (inactive)
GI50 (MDA-MB-435): > 100 µM (inactive)
GI50 (KM12): > 100 µM (inactive)
GI50 (HCT-15): > 100 µM
GI50 (MOLT-4): > 100 µM (inactive)
GI50 (SNB-78): > 100 µM (inactive)
GI50 (Hs-578T): > 100 µM (inactive)
GI50 (M19-MEL): > 100 µM (inactive)
GI50 (SF-539): > 100 µM (inactive)
GI50 (DLD-1): > 100 µM (inactive)
GI50 (SK-OV-3): > 100 µM (inactive)
GI50 (RPMI-8226): > 100 µM (inactive)
GI50 (NCI-H23): > 100 µM (inactive)
GI50 (HOP-18): > 100 µM (inactive)
GI50 (786-0): > 100 µM (inactive)
GI50 (RXF 393): > 100 µM (inactive)
GI50 (LOX IMVI): > 100 µM (inactive)

COc1ccc2c(c[n+](C)c3c4cc5c(cc4ccc23)OCO5)c1OC [CHELERYTHRINE CHLORIDE]
GI50 (SR): 1.28 µM (inactive)
GI50 (DMS-273): 2.04 µM (inactive)
GI50 (KM-20L2): 1.74 µM (inactive)
GI50 (LXFL 529): 1.73 µM (inactive)
GI50 (NCI-H522): 2.14 µM (inactive)
GI50 (SK-MEL-2): 2.04 µM (inactive)
GI50 (CAKI-1): 1.91 µM (inactive)
GI50 (DMS-114): 2.18 µM (inactive)
GI50 (SNB-78): 2 µM (inactive)
GI50 (M19-MEL): 1.6 µM (inactive)
GI50 (DLD-1): 1.7 µM (inactive)
GI50 (HOP-18): 1.8 µM (inactive)
